The experiment deals with T1, human PD-1 / PD-L1-Ig binding on Jurkat cell line over-expressing human PD-1 (Jurkat-PD-1) (Homo sapiens, UniProt Q15116).
T1 construct: expressed in transfected cells; host or cells: Jurkat
Put plainly: Jurkat-PD-1 Cell Binding High-Content Screening Assay (CBA). To be noted: Jurkat-PD-1 cells, PE-labeled PD-L1-Ig 20 nM final; read-out: Jurkat HPD1_PDL1 IC50. In kind it is cell-based. The procedure, abridged:
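PE-PD-L1-Ig 20 nM final; cells in DMEM/10% FCS; cpd pre-incubation 2 h, 37° C; ligand 1 h; PFA fix + Hoechst 33342; high-content imaging read-out.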

SMILES strings stand for the structures. Where a SMILES comes first, the peptide text is derived from it. Bridges are numbered along the chain shown (N, C = ends). [ ]: non-standard residue; d: D form. The star is where a group is joined. Phe(4-(2-Et-4-HO-Ph)) = CCc1cc(O)ccc1-c1ccc(C[C@H](N)C(=O)O)cc1; Bip(3'-COOH) = N[C@@H](Cc1ccc(-c2cccc(C(=O)O)c2)cc1)C(=O)O; Phe(3-CF3) = N[C@@H](Cc1cccc(C(F)(F)F)c1)C(=O)O; Ala(morpholin-4-yl) = N[C@@H](CN1CCOCC1)C(=O)O; Phe(4-COOH) = N[C@@H](Cc1ccc(C(=O)O)cc1)C(=O)O; Bip = N[C@@H](Cc1ccc(-c2ccccc2)cc1)C(=O)O; Cha = N[C@@H](CC1CCCCC1)C(=O)O; Cit = NC(=O)NCCC[C@H](N)C(=O)O; Carboxymethyl = O=C(O)C*; Orn = NCCC[C@H](N)C(=O)O; Dab = NCC[C@H](N)C(=O)O; Dap = NC[C@H](N)C(=O)O

T1 sequence (Q15116 25-288): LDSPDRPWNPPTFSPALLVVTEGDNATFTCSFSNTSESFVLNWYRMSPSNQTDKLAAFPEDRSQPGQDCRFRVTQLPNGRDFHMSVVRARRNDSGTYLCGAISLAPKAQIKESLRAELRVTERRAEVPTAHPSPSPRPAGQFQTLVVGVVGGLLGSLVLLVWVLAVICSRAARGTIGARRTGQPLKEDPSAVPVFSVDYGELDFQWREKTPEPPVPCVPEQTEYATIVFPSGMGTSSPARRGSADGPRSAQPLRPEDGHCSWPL

As for `CC(C)C[C@H]1NC(=O)[C@H](CCCN)NC(=O)[C@H](CCCNC(N)=O)NC(=O)[C@H](Cc2ccc(-c3ccccc3)cc2)NC(=O)[C@H](C(C)C)NC(=O)[C@H](Cc2c[nH]c3ccccc23)NC(=O)[C@H](CC(=O)O)NC(=O)[C@H](Cc2ccc(-c3cccc(C(=O)O)c3)cc2)NC(=O)[C@H](CN)NC(=O)CSC[C@@H](C(=O)N[C@@H](C)C(N)=O)NC(=O)[C@H]([C@@H](C)O)NC(=O)[C@H](C(C)C)NC(=O)[C@H](CC2CCCCC2)NC(=O)[C@H](CCN)NC1=O` [Compound 2090] ({CH2CO}-[Dap][Bip(3'-COOH)]DWV[Bip][Cit][Orn][dL][Dab][Cha]VTCA-NH2; thioether N-14), the IC50 turned out to be 7.8 nM.

With `CC(C)C[C@@H]1NC(=O)[C@H](CCN)NC(=O)[C@@H](CC(C)C)NC(=O)[C@H](CC(=O)O)NC(=O)[C@H](C(C)C)NC(=O)[C@H](Cc2ccc(-c3ccccc3)cc2)NC(=O)[C@H](C(C)C)NC(=O)[C@H](Cc2c[nH]c3ccccc23)NC(=O)[C@H](CC(=O)O)NC(=O)[C@H](Cc2ccc(O)cc2)NC(=O)[C@H](CC(N)=O)NC(=O)CSC[C@@H](C(=O)N[C@@H](C)C(N)=O)NC(=O)[C@H]([C@@H](C)O)NC(=O)[C@H](C(C)C)NC1=O` [Compound 1033] ({CH2CO}-NYDWV[Bip]VD[dL][Dab]LVTCA-NH2; thioether N-14), the IC50 was 29.4 nM.

In the case of `CCc1cc(O)ccc1-c1ccc(C[C@@H]2NC(=O)[C@H](Cc3cccc(C(F)(F)F)c3)NC(=O)[C@H](CC(=O)O)NC(=O)[C@H](Cc3ccc(C(=O)O)cc3)NC(=O)[C@H](CN3CCOCC3)NC(=O)CSC[C@@H](C(=O)N[C@@H](CCN)C(N)=O)NC(=O)[C@H](CCC(=O)O)NC(=O)[C@H](C(C)C)NC(=O)[C@H](CC3CCCCC3)NC(=O)[C@H](CCN)NC(=O)[C@@H](CC(C)C)NC(=O)[C@H](CCCN)NC(=O)[C@H](Cc3ccc(C(=O)O)cc3)NC(=O)[C@H](Cc3ccc(-c4ccccc4)cc3)NC2=O)cc1` [Example 2733] ({CH2CO}-[Ala(morpholin-4-yl)][Phe(4-COOH)]D[Phe(3-CF3)][Phe(4-(2-Et-4-HO-Ph))][Bip][Phe(4-COOH)][Orn][dL][Dab][Cha]VEC[Dab]-NH2; thioether N-14), the IC50 is 2.5 nM.

As to `CC[C@H](C)[C@@H]1NC(=O)[C@H](Cc2ccc(-c3ccccc3)cc2)NC(=O)[C@H](C(C)C)NC(=O)[C@H](Cc2c[nH]c3ccccc23)NC(=O)[C@H](CC(=O)O)NC(=O)[C@H](Cc2ccc(O)cc2)NC(=O)[C@H](CC(N)=O)NC(=O)CSC[C@@H](C(=O)NCC(N)=O)NC(=O)[C@H](CO)NC(=O)[C@H](C(C)C)NC(=O)[C@H](CC(C)C)NC(=O)[C@H](CCN)NC(=O)[C@@H](CC(C)C)NC(=O)[C@H](CCCCN)NC1=O` [Compound 1122] ({CH2CO}-NYDWV[Bip]IK[dL][Dab]LVSCG-NH2; thioether N-14), the IC50 was found to be 16.2 nM.

Take `CC(C)C[C@H]1NC(=O)[C@H](CCCN)NC(=O)[C@H](C(C)C)NC(=O)[C@H](Cc2ccc(-c3ccccc3)cc2)NC(=O)[C@H](C(C)C)NC(=O)[C@H](Cc2c[nH]c3ccccc23)NC(=O)[C@H](CC(=O)O)NC(=O)[C@H](Cc2ccc(OCC(=O)O)cc2)NC(=O)[C@H](Cc2ccc(OCC(=O)O)cc2)NC(=O)CSC[C@@H](C(=O)N[C@@H](C)C(N)=O)NC(=O)[C@H](Cc2cnc[nH]2)NC(=O)[C@H](C(C)C)NC(=O)[C@H](CC2CCCCC2)NC(=O)[C@H](CCN)NC1=O` [Compound 1752] ({CH2CO}-Y(Carboxymethyl)Y(Carboxymethyl)DWV[Bip]V[Orn][dL][Dab][Cha]VHCA-NH2; thioether N-14): the IC50 came out at 6.7 nM.

The values are drawn from patent publication US20250163104A1, “MACROCYCLIC IMMUNOMODULATORS” (priority 2021, published 2025).
